# Target: T1, HGFR (Homo sapiens, UniProt P08581)
# T1 construct: endogenous in cells; host or cells: MKN-45 human gastric cancer cells
# Assay: Inhibitory activity against the HGFR autophosphorylation using ELISA (MKN-45 cells)
# Assay type: cell-based
# Details: 1 hr with test substance
# Procedure: Human gastric cancer cells (MKN-45) were suspended in a 1% FBS-containing RPMI1640 medium (purchased from Sigma). The cell suspension (1×10^5 cells/ml) was put in a 96-well plate for cell culture (purchased from NUNC, Production No. 167008) at 0.1 ml/well, and then cultured in a 5% CO2 incubator (37° C.) overnight. After the culture, from each well was removed the supernatant, followed by adding 0.05 ml of a 1% FBS-containing RPMI1640 medium. Then, the well was supplied with 0.05 ml of the test substance dissolved in dimethyl sulfoxide (diluted with a 1% FBS-containing RPMI1640 medium), followed by culturing in a 5% CO2 incubator (37° C.) for 1 hr. From each well was removed the supernatant, and each well was washed with 150 μl of PBS, followed by adding 100 μl of a lysis buffer (50 mM Hepes (pH 7.4), 150 mM NaCl, 10% (v/v) glycerol, 1% Triton X-100, 1.5 mM MgCl2, 1 mM EDTA (pH 8.0), 100 mM NaF, 1 mM PMSF, 10 μg/ml Aprotinin, 50 μg/ml Leupeptin, 1 μg/ml Pepstatin A and 1 mM Na3VO4). The plate was shaken at 4° C. for 1 hr to prepare the cell extract.
# To a 96-well plate for ELISA (purchased from COSTAR, Production No. 3369) was added 50 μl of 60 mM bicarbonate buffer (pH 9.6) containing 50 μg/ml of an anti-phosphotyrosine antibody (PY20, purchased from Transduction Laboratory, Production No. P-11120). The plate was incubated at 4° C. overnight.
# Each well of the plate prepared in 2. was washed three times with 200 μl of PBS, and supplied with 150 μl of 3% BSA/PBS, followed by incubating at room temperature for 2 hrs. Each well was washed three times with 200 μl of PBS, and supplied with 50 μl of the above cell extract, followed by incubating at 4° C. overnight. After the incubation, each well was washed three times with 250 μl of a washing solution (0.1% BSA, 20 mM Tris-HCl (pH 7.6), 137 mM NaCl, and 0.05% Tween-20), and supplied with 70 μl of anti-HGFR antibody (h-Met(C-12), purchased from Santa Cruz, Production No. sc-10) 2,000-fold diluted with a reaction solution (1% BSA, 20 mM Tris-HCl (pH 7.6), 137 mM NaCl and 0.05% Tween-20), followed by incubating at room temperature for 1 hr. The well was washed three times with 250 μl of the washing solution, and supplied with 70 μl of peroxidase-labelled anti-rabbit IgG antibody (purchased from Cell Signaling, Production No. 7074) 2,000-fold diluted with the reaction solution, followed by incubating at room temperature for 1 hr. Each well was washed three times with 250 μl of the washing solution, and supplied with 70 μl of TMB Membrane Peroxidase Substrate (purchased from Funakoshi, Production No. 50-5077-03), followed by incubating at room temperature for 10 min. Each well was supplied with 70 μl of 1 M phosphoric acid, and using the Plate Reader MTP-500 (Corona Electric), the absorbance of the well was instantly determined at a measurement wavelength of 450 nm. While defining the absorbance of a well supplied with the cell extract having no test substance as 100% HGFR autophosphorylation activity, and the absorbance of a well supplied with 50 μl of the lysis buffer as 0% HGFR autophosphorylation activity, the HGFR autophosphorylation activity (%) was calculated for each well.
# T1 sequence (P08581 25-1390): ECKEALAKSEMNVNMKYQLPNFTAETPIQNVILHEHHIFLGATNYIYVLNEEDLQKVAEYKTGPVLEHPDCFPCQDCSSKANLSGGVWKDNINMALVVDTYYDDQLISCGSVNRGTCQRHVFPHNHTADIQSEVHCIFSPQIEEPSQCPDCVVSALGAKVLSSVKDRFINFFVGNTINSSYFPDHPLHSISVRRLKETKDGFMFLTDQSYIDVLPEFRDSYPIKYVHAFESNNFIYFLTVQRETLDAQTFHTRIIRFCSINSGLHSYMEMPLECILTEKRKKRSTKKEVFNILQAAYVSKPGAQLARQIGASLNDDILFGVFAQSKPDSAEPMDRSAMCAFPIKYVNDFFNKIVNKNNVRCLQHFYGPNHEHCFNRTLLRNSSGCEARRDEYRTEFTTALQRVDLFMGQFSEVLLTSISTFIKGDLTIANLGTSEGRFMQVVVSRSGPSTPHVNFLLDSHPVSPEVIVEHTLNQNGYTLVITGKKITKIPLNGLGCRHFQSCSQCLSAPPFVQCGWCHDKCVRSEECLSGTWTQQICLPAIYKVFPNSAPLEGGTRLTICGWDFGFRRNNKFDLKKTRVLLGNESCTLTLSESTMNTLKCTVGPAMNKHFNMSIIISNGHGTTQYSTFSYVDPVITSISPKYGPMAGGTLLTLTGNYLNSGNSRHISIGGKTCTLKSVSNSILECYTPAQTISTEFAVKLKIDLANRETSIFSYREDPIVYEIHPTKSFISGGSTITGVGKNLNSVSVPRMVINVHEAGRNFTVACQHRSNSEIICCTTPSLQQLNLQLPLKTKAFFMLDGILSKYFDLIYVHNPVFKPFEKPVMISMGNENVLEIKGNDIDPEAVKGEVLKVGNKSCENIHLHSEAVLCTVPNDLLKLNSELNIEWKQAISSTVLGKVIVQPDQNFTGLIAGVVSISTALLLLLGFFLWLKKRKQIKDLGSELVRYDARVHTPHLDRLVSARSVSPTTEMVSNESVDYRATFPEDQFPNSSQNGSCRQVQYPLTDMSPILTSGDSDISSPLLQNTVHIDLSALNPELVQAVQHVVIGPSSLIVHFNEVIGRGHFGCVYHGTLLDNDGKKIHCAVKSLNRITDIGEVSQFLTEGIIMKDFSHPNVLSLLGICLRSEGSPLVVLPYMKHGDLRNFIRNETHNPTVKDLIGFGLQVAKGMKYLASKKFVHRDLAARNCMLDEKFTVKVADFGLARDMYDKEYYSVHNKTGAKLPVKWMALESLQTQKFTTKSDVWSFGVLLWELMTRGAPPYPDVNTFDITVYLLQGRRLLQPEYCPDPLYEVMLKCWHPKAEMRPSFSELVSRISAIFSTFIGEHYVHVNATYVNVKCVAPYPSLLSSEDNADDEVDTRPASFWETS
row,Structure (SMILES),IC50 [nM]
1,"CN1CCC(N(C)C(=O)Nc2cc(Oc3ccc(NC(=O)C4(C(=O)Nc5ccc(F)cc5F)CC4)c(F)c3)ccn2)CC1 [Example 56, N-(2,4-Difluorophenyl)-N′-(2-fluoro-4-{[2-({[methyl(1-methylpiperidin-4-yl)amino]carbonyl}amino)pyridin-4-yl]oxy}phenyl)cyclopropane-1,1-dicarboxamide]",41
2,"CN1CCC(N2CCN(C(=O)Nc3cc(Oc4ccc(NC(=O)C5(C(=O)Nc6ccc(F)cc6)CC5)c(F)c4)ccn3)CC2)CC1 [Example 16, N-(2-Fluoro-4-{[2-({[4-(1-methylpiperidin-4-yl)piperazin-1-yl]carbonyl}amino)pyridin-4-yl]oxy}phenyl)-N′-(4-fluorophenyl)cyclopropane-1,1-dicarboxamide]",18
3,"CN1CCN(C2CCN(C(=O)Nc3cc(Oc4ccc(NC(=O)C5(C(=O)Nc6ccccc6)CC5)c(F)c4)ccn3)CC2)CC1 [Example 54, N-(2-Fluoro-4-{[2-({[4-(4-methylpiperazin-1-yl)piperidin-1-yl]carbonyl}amino)pyridin-4-yl]oxy}phenyl)-N′-phenylcyclopropane-1,1-dicarboxamide]",24
4,"CN(C)C1CN(C2CCN(C(=O)Nc3cc(Oc4ccc(NC(=O)C5(C(=O)Nc6ccc(F)cc6)CC5)cc4)ccn3)CC2)C1 [Example 38, N-[4-({2-[({4-[3-(Dimethylamino)azetidin-1-yl]piperidin-1-yl}carbonyl)amino]pyridin-4-yl}oxy)phenyl]-N′-(4-fluorophenyl)cyclopropane-1,1-dicarboxamide]",18
5,"CN(C)[C@H]1CCN(C(=O)Nc2cc(Oc3ccc(NC(=O)C4(C(=O)Nc5ccc(F)cc5)CC4)cc3)ccn2)C1 [Example 41, N-(4-{[2-({[(3S)-3-(Dimethylamino)pyrrolidin-1-yl]carbonyl}amino)pyridin-4-yl]oxy}phenyl)-N′-(4-fluorophenyl)cyclopropane-1,1-dicarboxamide]",16
6,"CCN(CC)CCCN(C)C(=O)Nc1cc(Oc2ccc(NC(=O)C3(C(=O)Nc4ccc(F)cc4)CC3)cc2F)ccn1 [Example 44, N-(4-{[2-({[[3-(Diethylamino)propyl](methyl)amino]carbonyl}amino)pyridin-4-yl]oxy}-3-fluorophenyl)-N′-(4-fluorophenyl)cyclopropane-1,1-dicarboxamide]",80
7,"CN1CCC(N2CCN(C(=O)Nc3cc(Oc4ccc(NC(=O)C5(C(=O)Nc6ccc(F)cc6)CC5)cc4)ccn3)CC2)CC1 [Example 31, N-(4-Fluorophenyl)-N′-(4-{[2-({[4-(1-methylpiperidin-4-yl)piperazin-1-yl]carbonyl}amino)pyridin-4-yl]oxy}phenyl)cyclopropane-1,1-dicarboxamide]",30
8,"CN(C)[C@H]1CCN(C(=O)Nc2cc(Oc3ccc(NC(=O)C4(C(=O)Nc5ccc(F)cc5)CC4)cc3F)ccn2)C1 [Example 24, N-(4-{[2-({[(3S)-3-(Dimethylamino)pyrrolidin-1-yl]carbonyl}amino)pyridin-4-yl]oxy}-3-fluorophenyl)-N′-(4-fluorophenyl)cyclopropane-1,1-dicarboxamide]",27
9,"O=C(Nc1cc(Oc2ccc(NC(=O)C3(C(=O)Nc4ccc(F)cc4)CC3)cc2F)ncn1)N1CCC(N2CCC2)CC1 [Example 34, N-{4-[(6-{[(4-Azetidin-1-ylpiperidin-1-yl)carbonyl]amino}pyrimidin-4-yl)oxy]-3-fluorophenyl}-N′-(4-fluorophenyl)cyclopropane-1,1-dicarboxamide]",81
10,"O=C(Nc1cc(Oc2ccc(NC(=O)C3(C(=O)Nc4ccc(F)cc4)CC3)cc2)ccn1)N1CCC1 [Example 70, N-[4-({2-[(Azetidin-1-ylcarbonyl)amino]pyridin-4-yl}oxy)phenyl]-N′-(4-fluorophenyl)cyclopropane-1,1-dicarboxamide]",27
11,"O=C(Nc1cc(Oc2ccc(NC(=O)C3(C(=O)Nc4ccc(F)cc4)CC3)cc2F)ncn1)N1CCOCC1 [Example 35, N-[3-Fluoro-4-({6-{(morpholin-4-ylcarbonyl)amino}pyrimidin-4-yl}oxy)phenyl]-N′-(4-fluorophenyl)cyclopropane-1,1-dicarboxamide]",120
12,"CN(C)CC1CN(C(=O)Nc2cc(Oc3ccc(NC(=O)C4(C(=O)Nc5ccc(F)cc5)CC4)c(F)c3F)ccn2)C1 [Example 107, N-[4-({2-[({3-[(Dimethylamino)methyl]azetidine-1-yl}carbonyl)amino]pyridin-4-yl}oxy)-2,3-difluorophenyl]-N′-(4-fluorophenyl)cyclopropane-1,1-dicarboxamide]",36

# Second part, the compound after the results:
row,IC50 [nM],Structure (SMILES)
1,11,"O=C(Nc1cc(Oc2ccc(NC(=O)C3(C(=O)Nc4ccc(F)cc4)CC3)c(F)c2)ccn1)N1CCC(N2CCC2)CC1 [Example 9, N-{4-[(2-{[(4-Azetidin-1-ylpiperidin-1-yl)carbonyl]amino}pyridin-4-yl)oxy]-2-fluorophenyl}-N′-(4-fluorophenyl)cyclopropane-1,1-dicarboxamide]"
2,10,"O=C(Nc1cc(Oc2ccc(NC(=O)C3(C(=O)Nc4ccc(F)cc4)CC3)c(F)c2)ccn1)N1CC(O)C1 [Example 72, N-{2-Fluoro-4-[(2-{[(3-hydroxyazetidin-1-yl)carbonyl]amino}pyridin-4-yl)oxy]phenyl}-N′-(4-fluorophenyl)cyclopropane-1,1-dicarboxamide]"
3,13,"O=C(Nc1cc(Oc2ccc(NC(=O)C3(C(=O)Nc4ccc(F)cc4)CC3)cc2F)ccn1)N1CCCC1 [Example 66, N-(4-Fluorophenyl)-N′-[3-fluoro-4-({2-[(pyrrolidin-1-ylcarbonyl)amino]pyridin-4-yl}oxy)phenyl]cyclopropane-1,1′-dicarboxamide]"
4,10,"O=C(Nc1cc(Oc2ccc(NC(=O)C3(C(=O)Nc4ccc(F)cc4)CC3)cc2F)ccn1)N1CCOCC1 [Example 67, N-[3-Fluoro-4-({2-[(morpholin-4-ylcarbonyl)amino]pyridin-4-yl}oxy)phenyl]-N′-(4-fluorophenyl)-cyclopropane-1,1-dicarboxamide]"
5,16,"CN(C)[C@@H]1CCN(C(=O)Nc2cc(Oc3ccc(NC(=O)C4(C(=O)Nc5ccccc5)CC4)c(F)c3)ccn2)C1 [Example 59, N-(4-{[2-({[(3R)-3-(Dimethylamino)pyrrolidin-1-yl]carbonyl}amino)pyridin-4-yl]oxy}-2-fluorophenyl)-N′-phenylcyclopropane-1,1-dicarboxamide]"
6,12,"CN(C)C1CCN(C(=O)Nc2cc(Oc3cc(F)c(NC(=O)C4(C(=O)Nc5ccc(F)cc5)CC4)cc3F)ccn2)CC1 [Example 103, N-(4-{[2-({[4-(Dimethylamino)piperidin-1-yl]carbonyl}amino)pyridin-4-yl]oxy}-2,5-difluorophenyl)-N′-(4-fluorophenyl)cyclopropane-1,1-dicarboxamide]"
7,13,"CN(C)CC1CN(C(=O)Nc2cc(Oc3ccc(NC(=O)C4(C(=O)Nc5ccc(F)cc5)CC4)c(F)c3)ccn2)C1 [Example 77, N-[4-({2-[({3-[(Dimethylamino)methyl]azetidin-1-yl}carbonyl)amino]pyridin-4-yl}oxy)-2-fluorophenyl]-N′-(4-fluorophenyl)cyclopropane-1,1-dicarboxamide]"
8,15,"CN1CCN(C2CCN(C(=O)Nc3cc(Oc4cc(F)c(NC(=O)C5(C(=O)Nc6ccc(F)cc6)CC5)cc4F)ncn3)CC2)CC1 [Example 101, N-(2,5-Difluoro-4-{[4-({[4-(4-methylpiperazin-1-yl)piperidin-1-yl]carbonyl}amino)pyrimidin-6-yl]oxy}phenyl)-N′-(4-fluorophenyl)cyclopropane-1,1-dicarboxamide]"
9,15,"CN1CCN(C2CCN(C(=O)Nc3cc(Oc4ccc(NC(=O)C5(C(=O)Nc6ccc(F)cc6)CC5)cc4)ccn3)CC2)CC1 [Example 32, N-(4-Fluorophenyl)-N′-(4-{[2-({[4-(4-methylpiperazin-1-yl)piperidin-1-yl]carbonyl}amino)pyridin-4-yl]oxy}phenyl)cyclopropane-1,1-dicarboxamide]"

# — patent publication US7855290B2, “Pyridine derivatives and pyrimidine derivatives (3)” (Eisai R&D Management Co., Ltd., priority 2005, dated 2010)
